Values after ≈ are worked out from the molar mass of the structure shown. Like-named read-outs stand apart in the source and are kept apart here.
Tests used:
A. anitratus (A8322001) = assay: MIC by agar-dilution, Diagnostic Sensitivity Test agar; format: cell-based; details: Acinetobacter calcoaceticus
Source text: (§1) The following results were obtained for Example 1 and two comparative compounds on a standard in vitro test system using Diagnostic Sensitivity Test agar medium. The antibacterial activity is described in terms of the minimum inhibitory concentration (MIC) determined by the agar-dilution technique with an inoculum size of 10^4 CFU/spot.

[1] = system: Citro. freundii DR(A8382031); assay: as above; format: cell-based; details: Citrobacter freundii
Source text: as §1

[2] = system: Citro. freundii DR(A8382034); assay: as above; format: cell-based; details: Citrobacter freundii, inoculum 10^4 CFU/spot
Source text: as §1

E. coli DCO(A8341098) = assay: as above; format: cell-based; details: Escherichia coli, inoculum 10^4 CFU/spot
Source text: as §1

[3] = system: E. coli JS3 RTEM(A8341135); assay: as above; format: cell-based; details: Escherichia coli
Source text: as §1

[4] = system: Ent. cloacae DR(A8401108); assay: as above; format: cell-based; details: Enterobacter cloacae, inoculum 10^4 CFU/spot
Source text: as §1

[5] = system: Ent. cloacae DR(A8401109); assay: as above; format: cell-based; details: Enterobacter cloacae, inoculum 10^4 CFU/spot
Source text: as §1

[6] = system: Ent. cloacae P99+(A8401053); assay: as above; format: cell-based; details: Enterobacter cloacae
Source text: as §1

[7] = system: Ent. cloacae P99-(A8401054); assay: as above; format: cell-based; details: Enterobacter cloacae
Source text: as §1

[8] = system: K. oxytoca D1^+ (A8395056); assay: as above; format: cell-based; details: Klebsiella oxytoca
Source text: as §1

[9] = system: P. aeruginosa 18S(A8101024); assay: as above; format: cell-based; details: Pseudomonas aeruginosa
Source text: as §1

[10] = system: P. aeruginosa DR18SH(A81011020); assay: as above; format: cell-based; details: Pseudomonas aeruginosa
Source text: as §1

[11] = system: P. aeruginosa PU21(A8101028); assay: as above; format: cell-based; details: Pseudomonas aeruginosa
Source text: as §1

P. stuartii DR(A8382031) = assay: as above; format: cell-based; details: Providencia stuartii
Source text: as §1

Pr. morganii (A8433001) = assay: as above; format: cell-based; details: Morganella morganii, inoculum 10^4 CFU/spot
Source text: as §1

[12] = system: Pr. morganii DR(A8433062); assay: as above; format: cell-based; details: Morganella morganii, inoculum 10^4 CFU/spot
Source text: as §1

S. dublin (A8369001) = assay: as above; format: cell-based; details: Salmonella enterica
Source text: as §1

[13] = system: Serr. marcesens (A8421003); assay: as above; format: cell-based; details: inoculum 10^4 CFU/spot
Source text: as §1

[14] = system: Serr. marcesens DR(A8421078); assay: as above; format: cell-based; details: inoculum 10^4 CFU/spot
Source text: as §1

[15] = system: Strep. pneumoniae (A8671001); assay: as above; format: cell-based; details: Streptococcus pneumoniae
Source text: as §1

[16] = system: Strep. pyogenes (A8681018); assay: as above; format: cell-based; details: Streptococcus pyogenes
Source text: as §1

half-life in marmosets = format: in vivo
Method: when dosed to marmosets at 3 mg/kg.

CC(C)(O/N=C(\C(=O)NC1C(=O)N2C(C(=O)O)=C(CSc3nnnn3-c3cc(O)c(O)c(Cl)c3CC(=O)O)CS[C@H]12)c1csc(N)n1)C(=O)O (stereo partly shown) [Example 1, 7-[2-(2-Aminothiazol-4-yl)-2-((Z)-1-carboxy-1-methylethoxyimino)acetamido]-3-[(1-(2-carboxymethyl-3-chloro-4,5-dihydroxyphenyl)tetrazol-5-yl)thiomethyl]ceph-3-em-4-carboxylic acid]
MIC (A. anitratus (A8322001); A. anitratus (A8322001), inoculum 10^4 CFU/spot, read-out: MIC): 0.06 µg/mL (≈ 0.0779 µM) | MIC ([1]; Citro. freundii DR(A8382031), inoculum 10^4 CFU/spot, read-out: MIC): 0.25 µg/mL (≈ 0.325 µM) | MIC [2]: 0.5 µg/mL (≈ 0.649 µM) | MIC (E. coli DCO(A8341098)): 0.002 µg/mL (≈ 0.0026 µM) | MIC [3]: 0.001 µg/mL (≈ 0.0013 µM) | MIC [4]: 0.25 µg/mL (≈ 0.325 µM) | MIC [5]: 0.125 µg/mL (≈ 0.162 µM) | MIC [6]: 1 µg/mL (≈ 1.3 µM) | MIC ([7]; Ent. cloacae P99-(A8401054), inoculum 10^4 CFU/spot, read-out: MIC): 0.125 µg/mL (≈ 0.162 µM) | MIC ([8]; K. oxytoca D1^+ (A8395056), inoculum 10^4 CFU/spot, read-out: MIC): 0.004 µg/mL (≈ 0.00519 µM) | MIC ([9]; P. aeruginosa 18S(A8101024), inoculum 10^4 CFU/spot, read-out: MIC): 0.004 µg/mL (≈ 0.00519 µM) | MIC ([10]; P. aeruginosa DR18SH(A81011020), inoculum 10^4 CFU/spot, read-out: MIC): 0.016 µg/mL (≈ 0.0208 µM) | MIC ([11]; P. aeruginosa PU21(A8101028), inoculum 10^4 CFU/spot, read-out: MIC): 0.008 µg/mL (≈ 0.0104 µM) | MIC (P. stuartii DR(A8382031); P. stuartii DR(A8382031), inoculum 10^4 CFU/spot, read-out: MIC): 0.03 µg/mL (≈ 0.039 µM) | MIC (Pr. morganii (A8433001)): 0.008 µg/mL (≈ 0.0104 µM) | MIC [12]: 0.06 µg/mL (≈ 0.0779 µM) | MIC (S. dublin (A8369001); S. dublin (A8369001), inoculum 10^4 CFU/spot, read-out: MIC): 0.004 µg/mL (≈ 0.00519 µM) | MIC [13]: 0.008 µg/mL (≈ 0.0104 µM) | MIC [14]: 0.008 µg/mL (≈ 0.0104 µM) | MIC ([15]; Strep. pneumoniae (A8671001), inoculum 10^4 CFU/spot, read-out: MIC): 0.03 µg/mL (≈ 0.039 µM) | MIC ([16]; Strep. pyogenes (A8681018), inoculum 10^4 CFU/spot, read-out: MIC): 0.5 µg/mL (≈ 0.649 µM) | half-life (t 1/2) compared with representative compounds of EP-A-272827 (half-life in marmosets; in words): substantially and significantly longer | half-life (half-life in marmosets; marmoset, in vivo, 3 mg/kg): 20.7 h

CC(C)(O/N=C(\C(=O)N[C@@H]1C(=O)N2C(C(=O)[O-])=C(C[n+]3ccccc3)CS[C@H]12)c1csc(N)n1)C(=O)O [(B), ceftazidime, reference compound]
MIC (A. anitratus (A8322001)): 16 µg/mL (≈ 29.3 µM) | MIC [1]: 128 µg/mL (≈ 234 µM) | MIC [2]: 64 µg/mL (≈ 117 µM) | MIC (E. coli DCO(A8341098)): 0.125 µg/mL (≈ 0.229 µM) | MIC [3]: 0.06 µg/mL (≈ 0.11 µM) | MIC [4]: 32 µg/mL (≈ 58.5 µM) | MIC [5]: 32 µg/mL (≈ 58.5 µM) | MIC [7]: 0.125 µg/mL (≈ 0.229 µM) | MIC [8]: 0.5 µg/mL (≈ 0.915 µM) | MIC [9]: 2 µg/mL (≈ 3.66 µM) | MIC [10]: 16 µg/mL (≈ 29.3 µM) | MIC [11]: 1 µg/mL (≈ 1.83 µM) | MIC (P. stuartii DR(A8382031)): 4 µg/mL (≈ 7.32 µM) | MIC (Pr. morganii (A8433001)): 0.06 µg/mL (≈ 0.11 µM) | MIC [12]: 16 µg/mL (≈ 29.3 µM) | MIC (S. dublin (A8369001)): 0.125 µg/mL (≈ 0.229 µM) | MIC [13]: 0.25 µg/mL (≈ 0.457 µM) | MIC [14]: 0.5 µg/mL (≈ 0.915 µM) | MIC [15]: 0.125 µg/mL (≈ 0.229 µM) | MIC [16]: 0.125 µg/mL (≈ 0.229 µM)
